Here are results for 10 compounds from publication PMC5552880, “The Bitter Taste Receptor TAS2R16 Achieves High Specificity and Accommodates Diverse Glycoside Ligands by using a Two-faced Binding Pocket” (Scientific Reports, 2017).

Numbering of substitutions follows the chain as printed. Entries after “also recorded” stand apart in the source; their conditions may differ. Where two headings read alike, the source gives them in different places.

Assay [1] has as its system TAS2R16. The note with it: disaccharides; cited from earlier work.
Another assay concerns the target T1, wild-type TAS2R16 (Homo sapiens, UniProt Q9NYV7).
T1 construct: FLAG (N); expressed in transfected cells; host or cells: HEK-293T
T1 sequence (Q9NYV7 1-291): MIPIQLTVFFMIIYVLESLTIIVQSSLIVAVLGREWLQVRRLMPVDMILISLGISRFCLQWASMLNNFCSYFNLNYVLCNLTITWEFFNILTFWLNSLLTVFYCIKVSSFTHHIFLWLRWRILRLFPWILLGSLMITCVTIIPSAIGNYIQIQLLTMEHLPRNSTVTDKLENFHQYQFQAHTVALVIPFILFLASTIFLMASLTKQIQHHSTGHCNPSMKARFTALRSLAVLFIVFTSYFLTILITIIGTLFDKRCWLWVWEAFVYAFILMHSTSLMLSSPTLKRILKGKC
Put plainly: Ca2+ flux assay, HEK-293T cells expressing wild-type TAS2R16 and Gα16gust44. The format is cell-based. The note with it: for activation of TAS2R16 (agonist screen): compounds screened at 10 mM, wild-type TAS2R16, Fig. 2a. The procedure: (§1) The TAS2R16 mutation library was tested for function using a Ca^2+ flux assay as described previously. Later screens of individual TAS2R16 mutant clones used 4-nitrophenyl-β-D-glucopyranoside. Briefly, HEK-293T cells, in poly-lysine coated, black 384-well plates with clear bottoms (Costar), were transfected with the TAS2R16 mutation library, and a plasmid expressing a Gα16 chimera containing the last 44 amino acids of rat gustducin (Gα16gust44). Cells were incubated for 22 hours at 37 °C then washed twice with a calcium indicator dye in HBSS containing 20 mM HEPES (Calcium 4 Assay kit, Molecular Devices), incubated with HBSS for 1.5 hr, then moved to a Flexstation II-384 (Molecular Devices) set at 32 °C. […] Concentrations for mutation library screening were chosen to be approximately 2 to 3 times higher than the EC50 values for the ligands to maximize the sensitivity of detecting decreases in signaling due to the mutation in each clone.
(§2) For Ca^2+ flux assays, the value of fluorescence at 30 seconds after ligand addition (the time of peak signal for wild-type TAS2R16) was used as the maximum value. […] Raw data obtained from surface expression and flux experiments were normalized to the values for wild-type TAS2R16 on each plate. Data sets were analyzed and represented as percentage over baseline signal. Mean and standard deviation values were calculated for each clone from replicate assay data.
(§3) Ligand dose-response data was analyzed with Graphpad Prism 5 software. Data was baseline subtracted and then fit using a sigmoidal dose-response (variable slope) equation.
Background: Calcium flux is commonly read through the fluorescence of an indicator in the cells.

For the next assay, the target named is T2, W261A TAS2R16 (Homo sapiens, UniProt Q9NYV7, W261A).
T2 construct: FLAG (N); expressed in transfected cells; host or cells: HEK-293T
T2 sequence (Q9NYV7 1-291 W261A): T1 sequence (Q9NYV7 1-291) with W261A
The experiment in a line: Ca2+ flux assay, W261A TAS2R16 variant. The class given is cell-based. The settings on record: for activation of W261A variant: W261A TAS2R16, relative to wild-type; for decrease in EC50 with W261 mutation compared to WT: W261 to alanine or glycine vs WT. The procedure:
as §1, §2, §3

A further assay addresses T3, W261G TAS2R16 (Homo sapiens, UniProt Q9NYV7, W261G).
T3 construct: FLAG (N); expressed in transfected cells; host or cells: HEK-293T
Put plainly: Ca2+ flux assay, mutation library clone W261G. The format is cell-based. The settings on record: W261G TAS2R16, relative to wild-type, Fig. 5A. The procedure:
as §1
(§4) For Ca^2+ flux assays, the value of fluorescence at 30 seconds after ligand addition (the time of peak signal for wild-type TAS2R16) was used as the maximum value. […] Data sets were analyzed and represented as percentage over baseline signal. Mean and standard deviation values were calculated for each clone from replicate assay data.

The target of a further assay is T4, C79A TAS2R16 (Homo sapiens, UniProt Q9NYV7, C79A).
T4 construct: FLAG (N); expressed in transfected cells; host or cells: HEK-293T
T4 sequence (Q9NYV7 whole entry C79A): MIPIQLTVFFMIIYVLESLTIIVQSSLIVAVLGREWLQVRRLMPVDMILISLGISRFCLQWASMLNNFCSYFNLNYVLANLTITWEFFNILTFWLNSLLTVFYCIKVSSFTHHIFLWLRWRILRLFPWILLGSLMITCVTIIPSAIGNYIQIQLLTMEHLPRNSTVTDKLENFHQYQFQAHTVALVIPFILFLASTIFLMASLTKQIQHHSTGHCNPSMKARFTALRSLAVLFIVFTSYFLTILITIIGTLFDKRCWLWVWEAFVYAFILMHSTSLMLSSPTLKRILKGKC
Put plainly: Ca2+ flux assay, C79A TAS2R16 variant. The class given is cell-based. The settings on record: Figure S3. The procedure:
as §1, §4

The target of the next assay is T5, S108T TAS2R16 (Homo sapiens, UniProt Q9NYV7, S108T).
T5 construct: FLAG (N); expressed in transfected cells; host or cells: HEK-293T
T5 sequence (Q9NYV7 1-291 S108T): T1 sequence (Q9NYV7 1-291) with S108T
Put plainly: Ca2+ flux assay, mutation library clone S108T. The format is cell-based. The note with it: library screening concentrations. The procedure:
as §1, §2

The target of another assay is T6, S228T TAS2R16 (Homo sapiens, UniProt Q9NYV7, S228T).
T6 construct: FLAG (N); expressed in transfected cells; host or cells: HEK-293T
T6 sequence (Q9NYV7 1-291 S228T): T1 sequence (Q9NYV7 1-291) with S228T
The experiment in a line: Ca2+ flux assay, mutation library clone S228T. The class given is cell-based. The note with it: library screening concentrations. The procedure: as §1, §2

For another assay, the target named is T7, N96T TAS2R16 (Homo sapiens, UniProt Q9NYV7, N96T).
T7 construct: FLAG (N); expressed in transfected cells; host or cells: HEK-293T
T7 sequence (Q9NYV7 whole entry N96T): as the sequence (Q9NYV7 whole entry C79A) above, with A79C, N96T counted along it
Put plainly: Ca2+ flux assay, N96T TAS2R16 variant. The class given is cell-based. The settings on record: Fig. 7 dose-response. The procedure: as §1, §4
(§5) Ligand dose-response data was analyzed with Graphpad Prism 5 software. […]

Another assay addresses T8, N96A TAS2R16 (Homo sapiens, UniProt Q9NYV7, N96A).
T8 construct: FLAG (N); expressed in transfected cells; host or cells: HEK-293T
Put plainly: Ca2+ flux assay, N96A TAS2R16 variant. The class given is cell-based. The note with it: Fig. 7 dose-response. The protocol: as §1, §4, §5

For assay [2], the system named is TAS2R16. The note with it: cited from earlier work.
In a further assay the test system is TAS2R38. The note with it: cited from earlier work.
The subject of a further assay is TAS2R43. The settings on record: cited from earlier work.
Where [3] appears, read: Fig. 5b dose-response, wild-type TAS2R16, read-out: EC50 (WT).
The mark [4] stands for this setting: Fig. 5b dose-response, W261A TAS2R16.
The mark [5] stands for this setting: Fig. 2d dose-response, wild-type TAS2R16, HEK-293T, read-out: EC50.

What is called EC50 is the concentration needed to bring the measured effect to its halfway point.

T3 sequence (Q9NYV7 whole entry W261G): as the sequence (Q9NYV7 whole entry C79A) above, with A79C, W261G counted along it
T8 sequence (Q9NYV7 whole entry N96A): as the sequence (Q9NYV7 whole entry C79A) above, with A79C, N96A counted along it

Take `N#C[C@H](O[C@@H]1O[C@H](CO[C@@H]2O[C@H](CO)[C@@H](O)[C@H](O)[C@H]2O)[C@@H](O)[C@H](O)[C@H]1O)c1ccccc1` [amygdalin]: the “activation of TAS2R16” value with TAS2R16 [1] is on record as “activation”.
On to `O=[N+]([O-])c1ccc(O[C@@H]2O[C@H](CO)[C@@H](O)[C@H](O)[C@H]2O)cc1` [4-NP-β-glucoside, 4-nitrophenyl-β-D-glucopyranoside], for which the EC50 at wild-type TAS2R16 (setting [3]) came out at 4900 µM. This compound also yielded an EC50 on W261A TAS2R16 (setting [4]) of 1800 µM. Moreover, on W261A TAS2R16, the “activation of W261A variant” value is listed as “strongly activated; also recorded: higher than wild-type; also recorded: increased the activation” and the “decrease in EC50 with W261 mutation compared to WT” value is given as ~ 4 fold. On W261G TAS2R16, the “activation of W261G variant” value was “higher than wild-type”.
Consider `OC[C@H]1O[C@@H](Sc2ccccc2)[C@H](O)[C@@H](O)[C@@H]1O` [phenyl-β-D-thioglucopyranoside], for which the “activation of TAS2R16 (agonist screen)” value at wild-type TAS2R16 is on record as “moderate to robust activation”. Further, the “activation of wild-type TAS2R16” value at wild-type TAS2R16 (wild-type TAS2R16, HEK-293T) was “activation”.
For the compound `CC(=O)N[C@H]1[C@H](Oc2ccccc2)O[C@H](CO)[C@@H](O)[C@@H]1O` [β-glucosaminide, phenyl-N-acetyl-β-D-glucosaminide], the EC50 at wild-type TAS2R16 (setting [5]) worked out at 2500 µM. In addition, the “activation of TAS2R16 (agonist screen)” value on wild-type TAS2R16 is “moderate to robust activation”. For the same compound, the “activation, % of wild-type activation” value on C79A TAS2R16 is given as 90 % of wild-type. Moreover, the “Ca2+ flux signaling value” on S108T TAS2R16 was 132 % of wild-type; on S228T TAS2R16 it was 105 % of wild-type.
For the compound `CCCCCCO[C@@H]1O[C@H](CO)[C@@H](O)[C@H](O)[C@H]1O` [hexyl-glucoside, hexyl-β-D-glucopyranoside], the EC50 at wild-type TAS2R16 (setting [5]) came out at 2100 µM. Moreover, the “Ca2+ flux signaling value” on S108T TAS2R16 and on S228T TAS2R16 was 122 % of wild-type in each case.
Take `C=CCC(=NOS(=O)(=O)O)S[C@@H]1O[C@H](CO)[C@@H](O)[C@H](O)[C@H]1O` (stereo in doubt) [sinigrin]: the “activation of wild-type TAS2R16” value on wild-type TAS2R16 (wild-type TAS2R16, HEK-293T) is on record as “activation”.
Take `O=[N+]([O-])c1ccc(O[C@@H]2O[C@H](CO)[C@@H](O)[C@H](O)[C@@H]2O)cc1` [4-NP-β-mannoside, 4-nitrophenyl-β-D-mannopyranoside]: the EC50 worked out at 800 µM at wild-type TAS2R16 (setting [3]); 1200 µM on wild-type TAS2R16 (Fig. 6 comparative dose-response, wild-type TAS2R16, read-out: EC50 (WT)); 1100 µM on wild-type TAS2R16 (Fig. 7 dose-response, wild-type TAS2R16, read-out: EC50 (WT)); 650 µM at wild-type TAS2R16 (setting [5]); 200 µM on W261A TAS2R16 (setting [4]); 200 µM at N96T TAS2R16. At N96A TAS2R16, this compound registered an EC50 of 1000 µM. The “lower EC50 than 4-NP-β-glucoside” value at wild-type TAS2R16 (wild-type TAS2R16, Fig. 6A) turned out to be 4 fold. Besides, the “activation of W261A variant” value on W261A TAS2R16 was “strongly activated; also recorded: increased the activation”. Further, on W261A TAS2R16, the “decrease in EC50 with W261 mutation compared to WT” value is reported as ~ 4 fold. The “Ca2+ flux signaling value” is 103 % of wild-type at S108T TAS2R16 and 120 % of wild-type on S228T TAS2R16.
For `OC[C@H]1O[C@@H](Oc2ccccc2)[C@H](O)[C@@H](O)[C@@H]1O` [phenyl-β-glucoside, phenyl-β-D-glucoside], the “EC50 (WT)” value at wild-type TAS2R16 (Fig. 5b dose-response, wild-type TAS2R16) is given as “high”. In addition, on wild-type TAS2R16 (wild-type TAS2R16, HEK-293T), the “activation of wild-type TAS2R16” value was “substantially weaker activation”. Also, the “EC50 (W261A)” value at W261A TAS2R16 (setting [4]) is given as “high”.
`CCCN(CCC)S(=O)(=O)c1ccc(C(=O)O)cc1` [probenecid]: the “action on TAS2R16” value in the assay on TAS2R16 [2] is reported as “allosteric inhibitor”. Besides, the “action on TAS2R38” value with TAS2R38 is reported as “allosteric inhibitor”. Besides, the “action on TAS2R43” value with TAS2R43 is “allosteric inhibitor”.
For gentiobiose, the “activation of TAS2R16” value in the assay with TAS2R16 [1] is reported as “activation”.
